Data published in US20260294915A1, “COMBINATION THERAPY COMPRISING A MAT2A INHIBITOR AND A TOPOISOMERASE INHIBITOR, A SPLICING INHIBITOR SULFONAMIDE, OR A KIF18 INHIBITOR” (IDEAYA BIOSCIENCES, INC., priority 2023, published 2026).

Key:
NCI-H520 = assay: 10-day proliferation (CTG), SPLAM titration + 1000 nM Compound A, Bliss (Example 5; Tables 12-19); assay type: cell-based; design: key: −100 to 100; 0 = cell number at T0, <0 = cytotoxic; conditions: for GDI (growth death index), single agent Cmpd A: NCI-H520, 1000 nM Compound A
Description: (§1) A 10-day proliferation assay was performed in a panel of 5 MTAP-deficient and 2 wild type non-small cell lung and bladder cancer cell lines. Optimal cell seeding for all cell lines was determined by assessing the growth over a range of seeding densities in a 384-well format to identify conditions that permitted proliferation for 10 days. Cells were then plated at the optimal seeding density and treated with 20-point, two-fold dilution series of each of four structurally different SPLAMs in combination with a 1000 nM fixed concentration of Compound A. Single agent titrations for Compound A and each SPLAM were included for comparison. Concentrations tested for each SPLAM alone or in combination ranged from 0.04 nM to 20,000 nM. A plate of cells was harvested at the time of compound addition to quantify the number of cells at the start of the combination (T0). For cell quantification, the harvested cells were lysed with Promega CellTiter-Glo (CTG) reagent according to the manufacturer's protocol and the chemiluminescent signal was detected as described in Example 1 above. Cells were incubated with the drug combinations at 37° C. with 5% CO2 for 10 days. Cells were then lysed with CTG and the chemiluminescent signal was measured.
(§2) CTG values obtained after the 10-day treatment were background subtracted and expressed as a percent of the T0 value set at 100%. Data were plotted against compound concentration and fit with a four-parameter equation to generate single agent dose response curves. Percent inhibition was determined for each combination and single agent concentration compared to a DMSO control. In addition, the overall net growth or death of the cells was calculated and reported as a growth death index (GDI) value on a scale of −100 to 100 with the midpoint (0) being the number of cells at the beginning of the combination (T0).
(§3) Predicted inhibition was calculated using (Ea+Eb)−(Ea*Eb) where E equals the effect (inhibition) of each single agent (a and b). A difference between the observed inhibition percentage and the predicted inhibition percentage greater than 10% was considered synergistic. A Bliss score was only reported for combinations eliciting >20% growth inhibition (GDI value <80). Since Bliss is calculated based on growth inhibition, scores within cytotoxic dose ranges may not accurately reflect synergistic cytoxicity.
(§4) Synergy was measured across the Indisulam titration with 1000 nM Compound A by Bliss Independence analysis. Bliss scores >10 are indicated by “*” and are considered synergistic. […] Synergy as reported using Bliss may be underrepresented within cytotoxic dose ranges. Growth death index values are shown for the combination titration and each single agent Compound A (Cmpd A) and Indisulam on a scale of −100 to 100 with the midpoint (0) being the number of cells at the beginning of the combination (T0). Scores less than 0 are highlighted black and are representative of a cytotoxic response. Bliss and GDI values are shown for five MTAP-deficient cell lines: NCI-H520 (13A), TCCSUP (13B).
(§5) Synergy was measured across the E7820 titration with 1000 nM Compound A by Bliss Independence analysis. Bliss scores >10 are indicated by “*” and are considered synergistic. […] Synergy as reported using Bliss may be underrepresented within cytotoxic dose ranges. Growth death index values are shown for the combination titration and each single agent Compound A (Cmpd A) and Indisulam on a scale of −100 to 100 with the midpoint (0) being the number of cells at the beginning of the combination (T0). Scores less than 0 are indicated by “**” and are representative of a cytotoxic response. Bliss and GDI values are shown for five MTAP-deficient cell lines: NCI-H520 (15A), TCCSUP (15B).
(§6) Synergy was measured across the Chloroquinoxaline Sulfonamide titration with 1000 nM Compound A by Bliss Independence analysis. Bliss scores >10 are indicated by and are considered synergistic.

TCCSUP = assay: as above; assay type: cell-based; design: key: −100 to 100; 0 = cell number at T0, <0 = cytotoxic; conditions: for GDI (growth death index), single agent Cmpd A: TCCSUP, 1000 nM Compound A
Description: as §1, §2, §3, §4, §5, §6

[1] = SPLAM 0.04 nM, alone or + 1 uM Cmpd A
[2] = SPLAM 0.1 nM, alone or + 1 uM Cmpd A
[3] = SPLAM 0.2 nM, alone or + 1 uM Cmpd A
[4] = SPLAM 0.3 nM, alone or + 1 uM Cmpd A
[5] = SPLAM 0.6 nM, alone or + 1 uM Cmpd A
[6] = SPLAM 1.2 nM, alone or + 1 uM Cmpd A
[7] = SPLAM 2.4 nM, alone or + 1 uM Cmpd A
[8] = SPLAM 4.9 nM, alone or + 1 uM Cmpd A
[9] = SPLAM 9.8 nM, alone or + 1 uM Cmpd A
[10] = SPLAM 19.5 nM, alone or + 1 uM Cmpd A
[11] = SPLAM 39.1 nM, alone or + 1 uM Cmpd A
[12] = SPLAM 78.1 nM, alone or + 1 uM Cmpd A
[13] = SPLAM 156.3 nM, alone or + 1 uM Cmpd A
[14] = SPLAM 312.5 nM, alone or + 1 uM Cmpd A
[15] = SPLAM 625 nM, alone or + 1 uM Cmpd A
[16] = SPLAM 1250 nM, alone or + 1 uM Cmpd A
[17] = SPLAM 2500 nM, alone or + 1 uM Cmpd A
[18] = SPLAM 5000 nM, alone or + 1 uM Cmpd A
[19] = SPLAM 10000 nM, alone or + 1 uM Cmpd A
[20] = SPLAM 20000 nM, alone or + 1 uM Cmpd A

## Nc1nc(=O)n(-c2ccccc2Cl)c2nc(C(F)(F)F)ccc12 [Compound A]
NCI-H520; Table 17A
  GDI (growth death index), single agent Cmpd A: 100
NCI-H520; Table 19A
  GDI (growth death index), single agent Cmpd A: 100
NCI-H520; single agent Cmpd A, 1000 nM
  GDI: 100
TCCSUP; Table 17B
  GDI (growth death index), single agent Cmpd A: 84
TCCSUP; Table 19B
  GDI (growth death index), single agent Cmpd A: 84
TCCSUP; single agent Cmpd A, 1000 nM
  GDI: 84

## Cc1ccc(NS(=O)(=O)c2cccc(C#N)c2)c2[nH]cc(C#N)c12 [Compound E7820, 3-cyano-N-(3-cyano-4-methyl-1H-indol-7-yl)benzenesulfonamide]
NCI-H520; [1]
  GDI: 100
NCI-H520; [2]
  GDI: 100
NCI-H520; [3]
  GDI: 100
NCI-H520; [4]
  GDI: 100
NCI-H520; [5]
  GDI: 100
NCI-H520; [6]
  GDI: 100
NCI-H520; [7]
  GDI: 100
NCI-H520; [8]
  GDI: 100
NCI-H520; [9]
  GDI: 100
NCI-H520; [10]
  GDI: 100
NCI-H520; [11]
  GDI: 100
NCI-H520; [12]
  GDI: 100
NCI-H520; [13]
  GDI: 100
NCI-H520; [14]
  GDI: 82
NCI-H520; [15]
  GDI: 54
NCI-H520; [16]
  GDI: 32
NCI-H520; [17]
  GDI: 21
NCI-H520; [18]
  GDI: 11
NCI-H520; [19]
  GDI: 8
NCI-H520; [20]
  GDI: 5
TCCSUP; [1]
  GDI: 100
TCCSUP; [2]
  GDI: 100
TCCSUP; [3]
  GDI: 100
TCCSUP; [4]
  GDI: 100
TCCSUP; [5]
  GDI: 100
TCCSUP; [6]
  GDI: 100
TCCSUP; [7]
  GDI: 100
TCCSUP; [8]
  GDI: 100
TCCSUP; [9]
  GDI: 100
TCCSUP; [10]
  GDI: 100
TCCSUP; [11]
  GDI: 100
TCCSUP; [12]
  GDI: 100
TCCSUP; [13]
  GDI: 100
TCCSUP; [14]
  GDI: 100
TCCSUP; [15]
  GDI: 100
TCCSUP; [16]
  GDI: 100
TCCSUP; [17]
  GDI: 100
TCCSUP; [18]
  GDI: 92
TCCSUP; [19]
  GDI: 91
TCCSUP; [20]
  GDI: 78

## NS(=O)(=O)c1ccc(S(=O)(=O)Nc2cccc3c(Cl)c[nH]c23)cc1 [Indisulam, N-(3-chloro-1H-indol-7-yl)benzene-1,4-disulfonamide]
NCI-H520; [1]
  GDI: 95
NCI-H520; [2]
  GDI: 100
NCI-H520; [3]
  GDI: 100
NCI-H520; [4]
  GDI: 100
NCI-H520; [5]
  GDI: 100
NCI-H520; [6]
  GDI: 100
NCI-H520; [7]
  GDI: 100
NCI-H520; [8]
  GDI: 100
NCI-H520; [9]
  GDI: 100
NCI-H520; [10]
  GDI: 100
NCI-H520; [11]
  GDI: 100
NCI-H520; [12]
  GDI: 100
NCI-H520; [13]
  GDI: 100
NCI-H520; [14]
  GDI: 97
NCI-H520; [15]
  GDI: 45
NCI-H520; [16]
  GDI: 25
NCI-H520; [17]
  GDI: 12
NCI-H520; [18]
  GDI: 6
NCI-H520; [19]
  GDI: 6
NCI-H520; [20]
  GDI: 2
TCCSUP; [1]
  GDI: 100
TCCSUP; [2]
  GDI: 100
TCCSUP; [3]
  GDI: 100
TCCSUP; [4]
  GDI: 100
TCCSUP; [5]
  GDI: 100
TCCSUP; [6]
  GDI: 100
TCCSUP; [7]
  GDI: 100
TCCSUP; [8]
  GDI: 100
TCCSUP; [9]
  GDI: 100
TCCSUP; [10]
  GDI: 100
TCCSUP; [11]
  GDI: 100
TCCSUP; [12]
  GDI: 100
TCCSUP; [13]
  GDI: 100
TCCSUP; [14]
  GDI: 100
TCCSUP; [15]
  GDI: 100
TCCSUP; [16]
  GDI: 100
TCCSUP; [17]
  GDI: 100
TCCSUP; [18]
  GDI: 100
TCCSUP; [19]
  GDI: 86
TCCSUP; [20]
  GDI: 70
